{
  "source": "paper PMC9403976",
  "about": "“Elucidating the path to Plasmodium prolyl-tRNA synthetase inhibitors that overcome halofuginone resistance” (Nature Communications, 2022)",
  "key": {"PfcProRS": {"biological_target": "T1, PfcProRS (Plasmodium falciparum, UniProt Q8I5R7)", "T1 construct": "made in house; host or cells: E. coli SoluBL-21", "T1 sequence (Q8I5R7 249-746)": "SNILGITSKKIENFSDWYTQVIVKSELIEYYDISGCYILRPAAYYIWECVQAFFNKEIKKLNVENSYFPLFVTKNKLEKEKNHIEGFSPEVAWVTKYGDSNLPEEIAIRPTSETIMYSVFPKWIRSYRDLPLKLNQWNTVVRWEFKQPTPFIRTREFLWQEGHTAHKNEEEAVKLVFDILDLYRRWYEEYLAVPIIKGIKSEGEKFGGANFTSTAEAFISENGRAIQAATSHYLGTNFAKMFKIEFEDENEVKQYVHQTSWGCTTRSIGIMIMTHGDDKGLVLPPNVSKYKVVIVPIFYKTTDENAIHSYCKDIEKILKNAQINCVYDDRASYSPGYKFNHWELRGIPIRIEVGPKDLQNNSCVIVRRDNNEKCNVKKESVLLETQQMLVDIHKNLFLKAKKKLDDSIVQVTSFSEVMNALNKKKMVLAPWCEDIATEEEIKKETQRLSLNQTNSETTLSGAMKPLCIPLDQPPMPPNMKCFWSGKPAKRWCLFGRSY", "assay_type": "binding", "conditions": "single replicates"}, "[1]": {"test_system": "HFGR-I P. falciparum (elevated proline homeostasis and PfcProRS^L482H)", "assay": "P. falciparum ABS growth assay, SYBR Green, 72 h, HFGR-I parasites", "assay_type": "cell-based, Plasmodium falciparum", "method_in_brief": "(§1)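 EC50 came from SYBR Green 1 fluorescence measured 72 h after dosing in triplicate dose-response. Dihydroartemisinin at 10 μM set full kill and untreated wells set full growth. Cultures of the Dd2 lines were seeded at 1% hematocrit and 1% parasitemia in Albumax-supplemented RPMI.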"}, "HsProRS": {"biological_target": "HsProRS (Homo sapiens, UniProt P07814)", "sequence (P07814 996-1512)": "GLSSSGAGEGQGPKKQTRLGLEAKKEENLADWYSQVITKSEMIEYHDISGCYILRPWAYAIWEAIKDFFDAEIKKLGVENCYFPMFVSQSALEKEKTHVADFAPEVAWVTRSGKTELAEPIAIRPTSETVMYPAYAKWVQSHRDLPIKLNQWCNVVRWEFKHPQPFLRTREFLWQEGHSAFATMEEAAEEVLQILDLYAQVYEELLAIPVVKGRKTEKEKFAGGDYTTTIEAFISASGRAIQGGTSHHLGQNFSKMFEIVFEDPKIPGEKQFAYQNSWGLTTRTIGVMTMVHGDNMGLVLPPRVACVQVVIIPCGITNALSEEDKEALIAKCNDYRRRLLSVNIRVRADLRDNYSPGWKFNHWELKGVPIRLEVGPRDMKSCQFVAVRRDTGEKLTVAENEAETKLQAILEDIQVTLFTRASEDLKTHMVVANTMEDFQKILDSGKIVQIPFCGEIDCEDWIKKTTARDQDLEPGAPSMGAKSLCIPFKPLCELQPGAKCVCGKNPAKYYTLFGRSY", "assay": "TR-FRET ligand displacement assay with tracer MAT379 (CoraFluor-1-Halo and anti-His6 antibody formats)", "assay_type": "binding", "parameters": "made in house; host or cells: E. coli SoluBL-21", "conditions": "for TR-FRET dose-response, normalized signal (SI Fig 11): individual replicates"}, "P. falciparum Dd2-2D4": {"test_system": "P. falciparum Dd2-2D4", "assay": "P. falciparum asexual blood stage (ABS) growth assay, SYBR Green, 72 h, wild-type parasites", "assay_type": "cell-based, Plasmodium falciparum", "conditions": "Plasmodium falciparum, DD2; SI Fig 16b; values on -log scale; read-out: ABS - Dd2-2D4 (converted)"}, "[2]": {"test_system": "halofuginone-induced P. falciparum (elevated proline homeostasis)", "assay": "P. falciparum ABS growth assay, SYBR Green, 72 h, halofuginone-induced parasites", "assay_type": "cell-based, Plasmodium falciparum", "method_in_brief": "as §1"}},
  "note": "Where “and” joins values, the source holds several entries; their conditions need not be identical. Equal entries are not always repeated. Where two headings read alike, the source gives them in different places.",
  "data": [
    {"smiles": "O=C(NC1Cc2ccccc2C1)c1nccnc1NC(=O)N1CCC(CO)CC1", "note": "[compound 11]", "values": [
      {"measurement": "dose-response signal (normalized), SI Fig 8", "setting": "PfcProRS; Log[inhibitor] (M) -5.000", "result": "5.60E-02 and 7.55E-02 and 4.27E-02"},
      {"measurement": "dose-response signal (normalized), SI Fig 8", "setting": "PfcProRS; Log[inhibitor] (M) -5.301", "result": "7.92E-02 and 2.41E-02 and 4.88E-02"},
      {"measurement": "dose-response signal (normalized), SI Fig 8", "setting": "PfcProRS; Log[inhibitor] (M) -5.601", "result": "9.80E-02 and 1.87E-03 and 7.44E-02"},
      {"measurement": "dose-response signal (normalized), SI Fig 8", "setting": "PfcProRS; Log[inhibitor] (M) -5.904", "result": "2.50E-01 and 1.37E-01 and 2.03E-01"},
      {"measurement": "dose-response signal (normalized), SI Fig 8", "setting": "PfcProRS; Log[inhibitor] (M) -6.208", "result": "3.69E-01 and 3.33E-01 and 3.17E-01"},
      {"measurement": "dose-response signal (normalized), SI Fig 8", "setting": "PfcProRS; Log[inhibitor] (M) -6.509", "result": "6.08E-01 and 6.11E-01 and 6.37E-01"},
      {"measurement": "dose-response signal (normalized), SI Fig 8", "setting": "PfcProRS; Log[inhibitor] (M) -6.796", "result": "7.29E-01 and 7.94E-01 and 7.90E-01"},
      {"measurement": "dose-response signal (normalized), SI Fig 8", "setting": "PfcProRS; Log[inhibitor] (M) -7.108", "result": "8.18E-01 and 8.62E-01 and 9.40E-01"},
      {"measurement": "dose-response signal (normalized), SI Fig 8", "setting": "PfcProRS; Log[inhibitor] (M) -7.409", "result": "1.03E+00 and 1.01E+00 and 8.87E-01"},
      {"measurement": "dose-response signal (normalized), SI Fig 8", "setting": "PfcProRS; Log[inhibitor] (M) -7.710", "result": "1.08E+00 and 9.42E-01 and 9.86E-01"},
      {"measurement": "dose-response signal (normalized), SI Fig 8", "setting": "PfcProRS; Log[inhibitor] (M) -8.000", "result": "1.04E+00 and 9.91E-01 and 1.06E+00"},
      {"measurement": "dose-response signal (normalized), SI Fig 8", "setting": "PfcProRS; Log[inhibitor] (M) -8.301", "result": "1.09E+00 and 1.02E+00 and 1.00E+00"},
      {"measurement": "dose-response signal (normalized), SI Fig 8", "setting": "PfcProRS; Log[inhibitor] (M) -8.602", "result": "1.07E+00 and 9.31E-01 and 1.05E+00"},
      {"measurement": "dose-response signal (normalized), SI Fig 8", "setting": "PfcProRS; Log[inhibitor] (M) -9.000", "result": "8.46E-01 and 1.03E+00 and 9.88E-01"},
      {"measurement": "dose-response signal (normalized), SI Fig 8", "setting": "PfcProRS; Log[inhibitor] (M) -9.301", "result": "1.09E+00 and 1.13E+00 and 1.15E+00"},
      {"measurement": "dose-response value, Replicates 1-3 (SI Fig 2f)", "setting": "[1]; Log[inhibitor] (M) -5.000", "result": 0},
      {"measurement": "EC50", "setting": "[1]; Plasmodium falciparum, DD2, read-out: Dd2 (EC50 [nM]) HFGR1 mean", "result": 1910, "unit": "nM"},
      {"measurement": "Kd", "setting": "HsProRS; HsProRS (KD [nM]) + 100 μM proline mean, + 100 μM proline", "result": 8.42, "unit": "nM"},
      {"measurement": "Kd", "setting": "HsProRS; HsProRS (KD [nM]) mean, no added proline/ATP (-)", "result": 265, "unit": "nM"},
      {"measurement": "normalized TR-FRET ligand displacement signal, dose-response replicates (SI Fig 6)", "setting": "HsProRS; Log[inhibitor] (M) -5.000", "result": "7.29E-02 and 8.36E-02 and 3.81E-02"},
      {"measurement": "TR-FRET dose-response, normalized signal (SI Fig 11)", "setting": "HsProRS; Log[inhibitor] (M) -5.000", "result": "-1.28E-03 and -3.43E-02 and 2.65E-03"},
      {"measurement": "normalized TR-FRET ligand displacement signal, dose-response replicates (SI Fig 6)", "setting": "HsProRS; Log[inhibitor] (M) -5.301", "result": "1.45E-01 and 1.02E-01 and 9.61E-02"},
      {"measurement": "TR-FRET dose-response, normalized signal (SI Fig 11)", "setting": "HsProRS; Log[inhibitor] (M) -5.301", "result": "2.77E-02 and 5.85E-02 and -1.28E-02"},
      {"measurement": "normalized TR-FRET ligand displacement signal, dose-response replicates (SI Fig 6)", "setting": "HsProRS; Log[inhibitor] (M) -5.601", "result": "2.34E-01 and 2.43E-01 and 2.83E-01"},
      {"measurement": "TR-FRET dose-response, normalized signal (SI Fig 11)", "setting": "HsProRS; Log[inhibitor] (M) -5.601", "result": "8.35E-02 and 4.98E-02 and 9.15E-02"},
      {"measurement": "normalized TR-FRET ligand displacement signal, dose-response replicates (SI Fig 6)", "setting": "HsProRS; Log[inhibitor] (M) -5.904", "result": "4.84E-01 and 4.37E-01 and 4.52E-01"},
      {"measurement": "TR-FRET dose-response, normalized signal (SI Fig 11)", "setting": "HsProRS; Log[inhibitor] (M) -5.904", "result": "2.07E-01 and 2.25E-01 and 2.22E-01"},
      {"measurement": "normalized TR-FRET ligand displacement signal, dose-response replicates (SI Fig 6)", "setting": "HsProRS; Log[inhibitor] (M) -6.208", "result": "6.54E-01 and 5.62E-01 and 6.80E-01"},
      {"measurement": "TR-FRET dose-response, normalized signal (SI Fig 11)", "setting": "HsProRS; Log[inhibitor] (M) -6.208", "result": "3.66E-01 and 3.44E-01 and 3.52E-01"},
      {"measurement": "normalized TR-FRET ligand displacement signal, dose-response replicates (SI Fig 6)", "setting": "HsProRS; Log[inhibitor] (M) -6.509", "result": "6.98E-01 and 7.35E-01 and 8.42E-01"},
      {"measurement": "TR-FRET dose-response, normalized signal (SI Fig 11)", "setting": "HsProRS; Log[inhibitor] (M) -6.509", "result": "5.64E-01 and 5.20E-01 and 5.33E-01"},
      {"measurement": "normalized TR-FRET ligand displacement signal, dose-response replicates (SI Fig 6)", "setting": "HsProRS; Log[inhibitor] (M) -6.796", "result": "1.06E+00 (2×) and 1.05E+00"},
      {"measurement": "TR-FRET dose-response, normalized signal (SI Fig 11)", "setting": "HsProRS; Log[inhibitor] (M) -6.796", "result": "7.28E-01 and 6.74E-01 and 6.24E-01"},
      {"measurement": "normalized TR-FRET ligand displacement signal, dose-response replicates (SI Fig 6)", "setting": "HsProRS; Log[inhibitor] (M) -7.108", "result": "8.92E-01 and 1.10E+00 and 9.75E-01"},
      {"measurement": "TR-FRET dose-response, normalized signal (SI Fig 11)", "setting": "HsProRS; Log[inhibitor] (M) -7.108", "result": "7.19E-01 and 7.66E-01 and 7.53E-01"},
      {"measurement": "normalized TR-FRET ligand displacement signal, dose-response replicates (SI Fig 6)", "setting": "HsProRS; Log[inhibitor] (M) -7.409", "result": "9.25E-01 and 9.47E-01 and 1.04E+00"},
      {"measurement": "TR-FRET dose-response, normalized signal (SI Fig 11)", "setting": "HsProRS; Log[inhibitor] (M) -7.409", "result": "8.67E-01 and 8.81E-01 and 8.44E-01"},
      {"measurement": "normalized TR-FRET ligand displacement signal, dose-response replicates (SI Fig 6)", "setting": "HsProRS; Log[inhibitor] (M) -7.710", "result": "9.81E-01 and 9.55E-01 and 9.75E-01"},
      {"measurement": "TR-FRET dose-response, normalized signal (SI Fig 11)", "setting": "HsProRS; Log[inhibitor] (M) -7.710", "result": "9.29E-01 and 8.46E-01 and 9.70E-01"},
      {"measurement": "normalized TR-FRET ligand displacement signal, dose-response replicates (SI Fig 6)", "setting": "HsProRS; Log[inhibitor] (M) -8.000", "result": "9.65E-01 and 1.05E+00 and 9.80E-01"},
      {"measurement": "TR-FRET dose-response, normalized signal (SI Fig 11)", "setting": "HsProRS; Log[inhibitor] (M) -8.000", "result": "9.63E-01 and 9.74E-01 and 9.23E-01"},
      {"measurement": "normalized TR-FRET ligand displacement signal, dose-response replicates (SI Fig 6)", "setting": "HsProRS; Log[inhibitor] (M) -8.301", "result": "1.00E+00 and 9.43E-01 and 1.07E+00"},
      {"measurement": "TR-FRET dose-response, normalized signal (SI Fig 11)", "setting": "HsProRS; Log[inhibitor] (M) -8.301", "result": "9.20E-01 and 9.31E-01 and 8.90E-01"},
      {"measurement": "normalized TR-FRET ligand displacement signal, dose-response replicates (SI Fig 6)", "setting": "HsProRS; Log[inhibitor] (M) -8.602", "result": "1.02E+00 (2×) and 9.43E-01"},
      {"measurement": "TR-FRET dose-response, normalized signal (SI Fig 11)", "setting": "HsProRS; Log[inhibitor] (M) -8.602", "result": "8.99E-01 and 8.64E-01 and 8.60E-01"},
      {"measurement": "normalized TR-FRET ligand displacement signal, dose-response replicates (SI Fig 6)", "setting": "HsProRS; Log[inhibitor] (M) -9.000", "result": "9.86E-01 and 1.02E+00 and 1.11E+00"},
      {"measurement": "TR-FRET dose-response, normalized signal (SI Fig 11)", "setting": "HsProRS; Log[inhibitor] (M) -9.000", "result": "9.04E-01 and 9.68E-01 and 8.68E-01"},
      {"measurement": "normalized TR-FRET ligand displacement signal, dose-response replicates (SI Fig 6)", "setting": "HsProRS; Log[inhibitor] (M) -9.301", "result": "1.03E+00 (2×) and 9.04E-01"},
      {"measurement": "TR-FRET dose-response, normalized signal (SI Fig 11)", "setting": "HsProRS; Log[inhibitor] (M) -9.301", "result": "8.86E-01 and 9.16E-01 and 9.33E-01"},
      {"measurement": "EC50", "setting": "P. falciparum Dd2-2D4", "result": 0.711, "unit": "µM"},
      {"measurement": "dose-response value, Replicates 1-3 (SI Fig 2e)", "setting": "[2]; Log[inhibitor] (M) -5.408", "result": 12},
      {"measurement": "EC50", "setting": "[2]; Plasmodium falciparum, DD2, read-out: Dd2 (EC50 [nM]) halofuginone-induced mean", "result": 2470, "unit": "nM"}
    ]}
  ]
}
